Reference: patent US20090074774A1, “Fgfr binding peptides” (priority 2004, published 2009)
Entries after “also recorded” stand apart in the source; their conditions may differ.

Experiments:
[1] = test system: rat cerebellar granular neurons (CGNs); assay: Stimulation of neurite outgrowth of cerebellar granule neurons in culture; assay type: cell-based; conditions: for effect of FGFR inhibitor on neurite outgrowth stimulated by EFL: CGNs; for stimulation of neurite outgrowth: CGNs from 7-day-old rats, peptide treatment 24 h, culture without substrate
Experimental: B. Neurite outgrowth stimulated by EFL is inhibited by SU5402, an inhibitor of fibroblast growth factor receptor 1 (FGFR1). Results from four independent experiments are in all cases expressed as a percentage±SEM, with non-treated control cells set at 100%. *P<0.05, **P<0.01, ***P<0.001, compared with control. Paired student's t-test. For experiments, CGNs from 7-old-day rats were treated with the peptides for 24 hr. The cultures were fixed in 4% paraformaldehyde, followed by blocking with 1% BSA and then immunostained with rabbit anti-rat GAP-43 primary antibodies, and then with secondary Alexa Fluor®488 goat anti-rabbit antibodies.
Cerebellar granule neurons (CGN) were prepared from postnatal day seven Wistar rats largely as previously described (Neiiendam et al, (2004) J. Neurochem. 91(4):920-35). Cerebellar tissue was dissected in modified Krebs-Ringer solution kept on ice, and treated as described for the hippocampal neurons above. All cell cultures were incubated at 37° C. in a humidified atmosphere containing 5% CO2. All animals were handled in accordance with the national guidelines for animal welfare.
Dissociated cells were plated at a density of 10,000 cells/cm^2 on uncoated 8-well permanox Lab-Tek chamber slides in Neurobasal medium supplemented with 0.4% (w/v) bovine serum albumin (BSA; Sigma-Aldrich), 2% (v/v) B27 Neurobasal supplement, 1% (v/v) glutamax, 100 U/ml penicillin, 100 μg/ml streptomycin and 2% 1 M HEPES (all from Gibco, BRL). Peptide solutions without or with inhibitors of various signal transduction pathways were added to a total volume of 300 μl/cm^2, and the slides were incubated at 37° C. After 24 hours, the neurons were fixed with 4% (v/v) formaldehyde for 20 minutes and thereafter immunostained using primary rabbit antibodies against GAP-43 and Alexa Fluor secondary goat anti-rabbit antibodies. Images of at least 200 neurons for each group in each individual experiment were obtained systematically by using computer assisted fluorescence microscopy as previously described (Ronn et al., 2000 op. cit.). Briefly, a Nikon Diaphot inverted microscope with a Nikon Plan 20× objective (Nikon, Tokyo, Japan) coupled to a video camera (Grundig Electronics, Germany) was used for recordings. The same software package as described above for the dopaminergic neurite outgrowth assay was used to process the recorded images.

[2] = test system: rat cerebellar granular neurons; assay: Survival assay of cerebellar granule neurons (apoptosis induced by low KCl); assay type: cell-based; conditions: for survival of CGN in culture: peptides as dendrimers (CDLd, EFLd, ABLd), apoptosis induced by 5 mM KCl, two days; for survival effect compared with the C3 peptide and GDNF: peptides as dendrimers, FIG. 2A
Experimental: The effect of the peptides is compared to the effect of glia-derived neurotrophic factor (GDNF) and dendrimeric form of the C3 peptide (C3d). […] Paired student's t-test.
Primary cultures of CGN were plated at a density of 100,000 cells/cm^2 on poly-L-lysine coated 8-well permanox slides in Neurobasal-A medium (Gibco, BRL) supplemented with 2% (v/v) B27, 0.5% (v/v) glutamax, 100 U/ml penicillin, 100 μg/ml streptomycin and KCl, making the final concentration of KCl in the medium 40 mM. 24 hours after plating, cytosine-β-D-arabinofuranoside (Ara-C; Sigma-Aldrich) was added to a final concentration of 10 μM to avoid proliferation of glial cells, after which the neurons were allowed to differentiate for further six days at 37° C. Apoptotic cell death was induced by washing twice and changing the medium to Basal Medium Eagle (BME; Gibco BRL) supplemented with 1% (v/v) glutamine, 100 U/ml penicillin and 100 μg/ml streptomycin, 3.5 g D-glucose/l and 1% (v/v) sodium pyruvate (Gibco BRL) together with various concentrations of peptide. Thereby the concentration of potassium in the cultures was reduced to 5 mM KCl. Two days after induction of apoptosis, the cells were fixed with 4% formaldehyde and stained with Hoechst 33258 as described for the survival assay employing hippocampal neurons.
The assay is performed as described by D'Mello et al., (1993) (Proc Natl Acad Sci U S A. 90:10989-93).

[3] = test system: caspase3-like activity in cultures of rat cerebellar granular neurons; assay: Caspase-3-like activity assay in cerebellar granule neurons; assay type: cell-based; conditions: monomeric peptides; for apoptosis-associated Caspase-3-like activity: cells in culture medium depleted of KCl (5 mM); for effect on Caspase-3-like activity compared with high KCl (40 mM): culture medium depleted of KCl
Experimental: The effect of the peptide is compared to the effect of high concentration of kCl. *P<0.05, **P<0.01, paired student's t-test
Primary cultures of CGN were prepared as described above and apoptosis in cells was induced as described above.
For the caspase-3 assay, cultured CGN were dislodged, collected by centrifugation and lyzed. Aliquots of lysed cells were used for the assay which was performed according to the manufacturer's instructions (Promega, USA),

[4] = biological target: T1, recombinant FGFR1 (immobilized FGFR Ig modules 2, 3) (Homo sapiens, UniProt P11362); assay: Binding of fragments of NCAM F3, 1 to FGFR1 by surface plasmon resonance; conditions: 25° C., pH 7.4
T1 construct: The FGFR Ig modules 2, 3 were immobilized on a sensor chip CM5; made in house; host or cells: Drosophila S2 cells (Invitrogen)
T1 sequence (P11362 150-365 limits assumed): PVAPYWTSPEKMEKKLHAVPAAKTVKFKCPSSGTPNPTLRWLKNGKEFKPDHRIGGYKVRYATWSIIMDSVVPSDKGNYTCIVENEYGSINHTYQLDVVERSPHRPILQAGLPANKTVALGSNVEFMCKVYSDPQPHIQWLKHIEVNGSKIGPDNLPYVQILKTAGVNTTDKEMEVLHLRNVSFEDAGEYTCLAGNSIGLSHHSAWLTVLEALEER
Source text: The binding is given as a response difference (Resp. Diff.) between the binding to the sensor chip with the immobilized FGFR1 modules and a blank sensor chip (unspecific binding). Abbreviations: AB-A strand-loop-B strand (corresponds to the ABL peptide of SEQ ID NO: 2); CD-C strand-loop-D strand (corresponds to the CDL peptide of SEQ ID NO: 1); EF-E strand-loop-F strand (corresponds to the EFL peptide of SEQ ID NO: 5); BC-B strand-loop-C strand of F3, 1 module of NCAM; DE-D strand-loop-E strand of F3, 1 module of NCAM; FG-F strand-loop-G strand of F3, 1 module of NCAM.
The FGFR Ig module 3 and modules 2, 3 were expressed in Drosophila S2 cells (Invitrogen, USA) according to the manufacturer's instructions. All the proteins were purified by affinity chromatography using Ni^2+-NTA resin (Qiagen, USA) and/or ion exchange chromatography and gel filtration.
Binding analysis was performed using a BIAcoreX instrument (Biosensor AB) at 25° C. using 10 mM sodium phosphate pH 7.4, 150 mM NaCl as running buffer. The flow-rate was 5 μl/min. Data were analysed by non-linear curve-fitting using the manufacture's software. The FGFR Ig modules 2, 3 were immobilized on a sensor chip CM5 using amine coupling kit (Biosensor AB) as follows: 1) the two halves of the chip (designated Fc1 and Fc2) were activated by 20 μl activation solution; 2) the protein was immobilized on Fc1 using 12 μl 20 μg/ml protein in 10 mM sodium phosphate buffer pH 6.0; 3) Fc1 and Fc2 were blocked by 35 μl blocking solution. Binding of various compounds to the immobilized FGFR modules was studied as follows: A compound was injected simultaneously into Fc1 (with the immobilized FGFR modules) and Fc2 (with nothing immobilized). The curve representing unspecific binding of the compound to the surface of Fc2 was subtracted from the curve representing binding of the protein to the immobilized FGFR modules and the surface of Fc1. The resulting curve was used for analysis. The results of the binding experiments are present on FIG. 4.

adult male Wistar rats = assay: Contextual Fear Conditioning Test (CFC); assay type: in vivo, rat; conditions: peptide injected immediately after training
Experimental: The rats were handled for 120 seconds every day for 3 days preceding the first day of the experiment. On day 1 (training), the rats received a 1-second shock (unconditioned stimuli) each minute for two minutes. Animals were injected immediately after training with 5 μl EFL, ABL, CDL or control peptide, or the vehicle. Each treatment group consisted of 11-14 rats. In total, […] animals were evaluated. […] Each rat was rated as either “freezing” or “active”, every 2 seconds, using a time-sampling procedure.

rats = assay: Social Recognition Test (SRT); assay type: in vivo, rat; conditions: subcutaneous 4 mg/kg; 1 h and 24 h after administration; paired t-test
Experimental: Results from 8-9 animals expressed as a percentage±SEM. Paired t-test (*P<0.05 and ***P<0.001); B Time spent with social investigation at first meeting (T1) and second meeting (T2) 24 h after peptide/vehicle administration. Results from 9 animals expressed as a percentage±SEM. Paired t-test (*P<0.05).
The animals were evaluated using the SRT, 1 hour and 24 hours after subcutaneous injection of the peptide or vehicle.
Habituation session: On the day before the social recognition test (SRT), one habituation session was performed under similar conditions as the test session for adaptation to the experimental room, time when the test was performed, test cage, and contact with juvenile rats (a different juvenile was used during habituation session and social recognition test). The inter-trial interval for the habituation session was of 1 hour.
Experimental session: Each experimental session consisted of an initial and a test trial separated by an inter-trial (retention) interval of 2 hours.
Initial trial. Adult animals were individually housed 1 hour before testing in the test cage. For testing, a juvenile was placed into the cage and the social investigation by the adult rat was measured cumulatively for 4 min. Sniffing and grooming of body parts, anogenital sniffing and close following were scored. […]

[5] = tested on day 8 after conditioning, placebo/control 32%

| Compound | effect of FGFR inhibitor on neurite outgrowth stimulated by EFL [1] | effect of FGFR inhibitor on neurite outgrowth stimulated by EFL ([1]; listed as SU5402) | stimulation of neurite outgrowth [1] | survival of CGN in culture [2] | survival effect compared with the C3 peptide and GDNF [2] | apoptosis-associated Caspase-3-like activity [3] | effect on Caspase-3-like activity compared with high KCl (40 mM) [3] | direct binding to FGFR (SPR) [4] | time of freezing (adult male Wistar rats; [5]) | difference between T1 and T2 of the same animal (presence of social memory) (rats) | time of freezing (adult male Wistar rats; tested on day 1 after conditioning, placebo/control 40.0%) |
| --- | --- | --- | --- | --- | --- | --- | --- | --- | --- | --- | --- |
| Cc1c[nH]c(/C=C2\C(=O)Nc3ccccc32)c1CCC(=O)O [SU 5402] | abolished | inhibited |  |  |  |  |  |  |  |  |  |
| KAEWKSLGEEAWHSK (CDL peptide, fragment of NCAM F3,1) [C strand-loop-D strand fragment of NCAM F3, 1 module] |  |  | strong stimulators; also recorded: stimulate neurite outgrowth | significantly promote survival | higher | inhibit | comparable | capable of direct binding | 42.5% | significant differences between T1 and T2 |  |
| SIDRVEPYSSTAQVQFD (ABL peptide, fragment of NCAM F3,1) [A strand-loop-B strand fragment of NCAM F3, 1 module] |  |  | inactive | does not influence survival |  |  |  | capable of direct binding |  |  |  |
| TIMGLKPETRYAVR (TIMGLKPETRTYAVR; EFL peptide, fragment of NCAM F3,1) [E strand-loop-F strand fragment of NCAM F3, 1, used as positive control] |  |  | strong stimulators; also recorded: stimulate neurite outgrowth | significantly promote survival | higher | inhibit | comparable | capable of direct binding | 42.5% | significant differences between T1 and T2 | approximately 50.3% |
